Results reported in US20240247021A1, “CRYSTAL FORMS OF KUDING SAPONIN A COMPOUND, PHARMACEUTICAL COMPOSITION AND USE THEREOF” (SHANGHAI KE PHARMACEUTICAL CO., LTD, priority 2021, published 2024).
Each block holds one compound with its values, some of them ahead of it.

Experiments:
[1] = Hygroscopicity test by dynamic vapor sorption (DVS); format: physicochemical; details: for weight change when the relative humidity is in the range of 0%-80% / hygroscopicity: DVS graph (FIGS. 1d, 2d, 3d); for hygroscopicity: judgment criteria of Table 7; for Increase in mass (relative humidity: 0%-80%) / Degree of hygroscopicity: DVS, 25° C., relative humidity 0%-80%; for Degree of hygroscopicity: criteria of Table 12
Description: Dynamic vapor sorption (DVS) is a test method for analyzing the moisture sorption performance of a sample and recording the moisture sorption isotherm, and it determines the stability of a compound by identifying its sorption capacity for moisture. Methods for performing dynamic vapor sorption analysis on the crystals are well known to those skilled in the art. In the present invention, the hygroscopicity of the crystal forms A, C, and J of Kudinoside A is determined by using a dynamic vapor sorption instrument, and the specific measurement conditions are shown in Table 7.
About 10 mg of each of the crystal forms A, C, and J obtained in Examples 1-3 was tested for its hygroscopicity using a dynamic vapor sorption (DVS) instrument (test conditions: a temperature of 25° C. and a relative humidity of 0%-80%), and the hygroscopicity of each crystal form was judged using the criteria shown in Table 12 below. For the steps and the judgment criteria of the hygroscopicity test, reference is made to the General Requirement 9103-Guidelines for Hygroscopicity in Pharmacopoeia of the People's Republic of China 2020 (Volume IV).

[2] = Conditions under which the crystal forms exist stably; format: physicochemical
[3] = format: physicochemical; details: uncovered, in the dark, 10 days; long-term (25±2° C., RH 65%±10%) and accelerated (40±2° C., RH 75%±10%) conditions
Description: 25 mg of the crystal form J was spread in a culture dish and left to stand, with the culture dish uncovered, in the dark for 10 days under long-term conditions (temperature: 25±2° C.; relative humidity: 65%±10%) and acceleration conditions (temperature: 40±2° C.; relative humidity: 75%±10%), and then the crystal form J was subjected to X-ray powder diffraction assay and thermogravimetric analysis. The X-ray powder diffractometer used and parameters thereof are shown in Table 4; the thermogravimetric analyzer used and parameters thereof are shown in Table 6.

[4] = Thermogravimetric analysis (TGA); format: physicochemical; details: 10 K/min, nitrogen
Source text: Thermogravimetric analysis, or TGA for short, refers to a thermal analysis method for measuring the relationship of the mass of a sample to be detected with the change of temperature or time at a programmed temperature, and it is used to study information related to the quality of the sample, such as thermal stability, components of intermediate products possibly generated, etc. It is often used in combination with other thermal analysis methods for comprehensive thermal analysis. Methods for performing thermogravimetric analysis on the crystals are well known to those skilled in the art. In the present invention, the crystal forms A, C, and J of Kudinoside A are determined by using a thermogravimetric analyzer, and the specific measurement conditions are shown in Table 6.

[5] = test system: asthma mouse models with obvious pulmonary inflammation; assay: Anti-inflammatory effect in asthma mouse models (eosinophilic granulocytes in alveolar lavage fluid, flow cytometry); format: in vivo, Balb/c mice; details: for Proportion of eosinophilic granulocytes (EOs): white blood cells of alveolar lavage fluid, day 39, negative control group 17.05
Description: Firstly, Kudinoside A solutions at different concentrations were prepared, and specific steps were as follows: • (1) Preparation of 15 mg/mL stock solution of the crystal form A of Kudinoside A: 0.50990 g of the crystal form A of Kudinoside A obtained in Example 1 was dissolved in 33.993 mL of propylene glycol under sonication to obtain about […] of 15 mg/mL stock solution of the crystal form A of Kudinoside A, which was stored at room temperature in the dark; • (2) Preparation of 1.5 mg/mL Kudinoside A solution: 2 mL of the 15 mg/mL stock solution of the crystal form A of Kudinoside A was measured out and diluted with 18 mL of 25% propylene glycol to obtain 20 mL of 1.5 mg/mL Kudinoside A solution, and the solution was freshly prepared before use. • (3) Preparation of 0.3 mg/mL Kudinoside A solution: 4 mL of the 1.5 mg/mL Kudinoside A solution was measured out and diluted with 16 mL of 32.5% propylene glycol to obtain 20 mL of 0.3 mg/mL Kudinoside A solution, and the solution was freshly prepared before use. • (4) Preparation of 0.06 mg/mL Kudinoside A solution: 3 mL of the 0.3 mg/mL Kudinoside A solution was measured out and diluted with 12 mL of 32.5% propylene glycol to obtain 15 mL of […] Kudinoside A solution, and the solution was freshly prepared before use.
Then, asthma mouse models with obvious pulmonary inflammation were constructed: 100 μL of 6 mg/mL chicken ovalbumin and 4 mg of aluminum hydroxide were injected intraperitoneally to Balb/c mice on day 1, 100 μL of 3.6 mg/mL chicken ovalbumin and 4 mg of aluminum hydroxide were injected on day 8, 100 μL of 1 mg/mL chicken ovalbumin and 4 mg of aluminum hydroxide were injected on day 15, and 6 mL of 2% chicken ovalbumin was administered by nebulization for exciting of 30 min every day from day 20 to day 23, thus constructing asthma mouse models with obvious pulmonary inflammation. For the mice in the blank control group, 100 μL of PBS was used instead of chicken ovalbumin.
Finally, the nebulization treatment was performed: from day 24, the Kudinoside A solutions at different concentrations (0.06 mg/mL, 0.3 mg/mL, and 1.5 mg/mL) were each administered by nebulization twice daily (30 min for each time, 12 mL in total) for treatment, and 6 mL of 2% chicken ovalbumin was administered by nebulization for exciting of 30 min 1 h after the nebulization treatment, and the administration and excitation were performed for 15 days according to this scheme; sampling was carried out 24 h after the last administration and excitation experiment, i.e., on day 39, and the Kudinoside A solution at the corresponding nebulization treatment concentration was administered twice (30 min for each time, 12 mL in total) for treatment before the sampling. The above was the scheme for the experimental groups of the nebulization treatment with Kudinoside A at different doses, and the mice in the negative control group were administered with 30% propylene glycol instead of Kudinoside A for nebulization.
Flow cytometry was adopted to detect proportion of eosinophilic granulocytes (EOs) in white blood cells of mouse alveolar lavage fluid samples. The blank group had 15 mice, the negative control group had 12 mice, and the high-, medium-, and low-concentration Kudinoside A experimental groups had 18 mice, 13 mice, and 14 mice, respectively.

[6] = test system: bronchial smooth muscle; assay: Relaxation effect on bronchial smooth muscle (bronchial ring tension); set-up: species or system C57BL/6J mice; details: for Average percentage of tension relaxation: bronchial rings pre-constricted, 20 minutes after adding
Description: Firstly, Kudinoside A solutions with different concentrations were prepared: 0.3253 g of the crystal form A of the Kudinoside A obtained in Example 1 was dissolved in 1 mL of dimethyl sulfoxide (DMSO) to prepare a stock solution of the crystal form A of Kudinoside A, and then the stock solution was diluted in sequence with DMSO into solutions of the crystal form A of Kudinoside A at concentrations of 1 μM, 3.2 μM, 10 μM, and 32 μM.
Then, bronchial rings were prepared: C57BL/6J mice aged 6 weeks were killed by breaking the neck, left and right bronchi were taken out and subjected to bronchia dissection under a stereomicroscope, and the obtained left and right bronchi were cut into bronchial rings with a length of about 2 mm.
Furthermore, the tension of the bronchial ring was balanced: the bronchial ring was fixed with two metal wires and suspended in a water bath at 37° C. containing 5 mL of balanced salt solution (Kreb solution), and a mixed gas containing 5% of carbon dioxide and 95% of oxygen was continuously introduced; then the tension of the bronchial ring was balanced using a tension transducer and re-balanced after pre-stimulation with 60 mM potassium chloride.
Finally, determination of the airway tension and drug administration were performed: the instrument was calibrated, and the detection system was zeroed; a tension value A was recorded when the tension of the mouse was stable; 5 μL of 10 mM […] was added to 5 mL of Kreb solution to make the final concentration to be 10 μM, and 5 μL of each of the solutions of the crystal form A of Kudinoside A at different concentrations (1 μM, 3.2 μM, 10 μM, and 32 μM) was added separately when the constriction tension of the bronchial ring reached the peak; the change of the bronchial tension was observed and recorded, and the percentage of the airway tension relaxation was calculated, as shown in Table 22. The average tension value 1 minute before adding the solution of Kudinoside A is recorded as B, the average tension value 20 minutes after adding Kudinoside A is recorded as C, and the percentage of airway tension relaxation is (B−C)/(B−A).

- weight change when the relative humidity is in the range of 0%-80% [1]: about 4.7%
- hygroscopicity [1]: hygroscopic
- Increase in mass (relative humidity: 0%-80%) [1]: 4.7%
- Degree of hygroscopicity [1]: hygroscopic
- characteristic peaks on the X-ray powder diffraction pattern (crystal form change) [3]: not changed
- weight loss condition (TGA) [3]: not changed
- decomposition temperature [4]: about 324 °C
Compound: C[C@@H]1O[C@@H](O[C@H]2[C@H](O[C@H]3CC[C@]4(C)[C@H]5C[C@H](O)C6=C7[C@]8(CC[C@](C)(OC8=O)[C@@]7(C)O)CC[C@@]6(C)[C@]5(C)CC[C@H]4C3(C)C)OC[C@H](O)[C@@H]2O[C@@H]2O[C@H](CO)[C@@H](O)[C@H](O)[C@H]2O)[C@H](O)[C@H](O)[C@H]1O [crystal form J, Kudinoside A]
- Degree of hygroscopicity ([1]; listed as J): Hygroscopic (The increase in mass is less than 15% but not less than 2%)
- conditions under which the crystal form exists stably [2]: can exist stably as a dry powder at room temperature

- weight change when the relative humidity is in the range of 0%-80% [1]: about 1.8%
- hygroscopicity [1]: slightly hygroscopic
- Increase in mass (relative humidity: 0%-80%) [1]: 1.8%
- Degree of hygroscopicity [1]: slightly hygroscopicity
- decomposition temperature [4]: about 315 °C
Compound: C[C@@H]1O[C@@H](O[C@H]2[C@H](O[C@H]3CC[C@]4(C)[C@H]5C[C@H](O)C6=C7[C@]8(CC[C@](C)(OC8=O)[C@@]7(C)O)CC[C@@]6(C)[C@]5(C)CC[C@H]4C3(C)C)OC[C@H](O)[C@@H]2O[C@@H]2O[C@H](CO)[C@@H](O)[C@H](O)[C@H]2O)[C@H](O)[C@H](O)[C@H]1O [crystal form C, Kudinoside A]
- Degree of hygroscopicity ([1]; listed as C): Slightly hygroscopic (The increase in mass is less than 2% but not less than 0.2%)
- conditions under which the crystal form exists stably [2]: can exist stably as a dry powder at room temperature

Compound: 3β-12α-19α-trihydroxy-ursane-13(18)-ene-28,20β-lactone-3-O-[β-D-glucosyl-(1→3)-[α-L-rham nosyl-(1→2)]-α-L-arabinoside [Kudinoside A]
- Proportion of eosinophilic granulocytes (EOs) ([5]; 0.06 mg/mL solution by nebulization twice daily): 10.14
- Proportion of eosinophilic granulocytes (EOs) ([5]; 0.3 mg/mL solution by nebulization twice daily): 9.56
- Proportion of eosinophilic granulocytes (EOs) ([5]; 1.5 mg/mL solution by nebulization twice daily): 10.81
- anti-inflammatory effect (conclusion) ([5]; asthma mouse models): certain anti-inflammatory effects
- proportion of eosinophilic granulocytes compared with the negative control group ([5]; each dose (0.06, 0.3, 1.5 mg/mL)): decreases
- relaxation effect on bronchial smooth muscle ([6]; 1 μM): no relaxation effect
- relaxation effect on bronchial smooth muscle ([6]; 3.2 μM, 10 μM, and 32 μM): relaxed to a certain degree
- Average percentage of tension relaxation ([6]; Concentration of Kudinoside A 1 μM): −3.57%
- Average percentage of tension relaxation ([6]; Concentration of Kudinoside A 3.2 μM): 21.40%
- Average percentage of tension relaxation ([6]; Concentration of Kudinoside A 10 μM): 42.93%
- Average percentage of tension relaxation ([6]; Concentration of Kudinoside A 32 μM): 50.09%
